One compound from article PMC10415136, “Reverse transcriptases prime DNA synthesis” (Nucleic Acids Research, 2023) can be followed below.

One assay deals with T1, ScTy3 RT (Saccharomyces cerevisiae, UniProt Q99315).
T1 construct: gene TY3B-G; RT domain aa 1-339 of the mature RT from Ty3 Gag-Pol polyprotein, C-terminal MBP fusion; recombinant from E. coli
T1 sequence (Q99315 536-874): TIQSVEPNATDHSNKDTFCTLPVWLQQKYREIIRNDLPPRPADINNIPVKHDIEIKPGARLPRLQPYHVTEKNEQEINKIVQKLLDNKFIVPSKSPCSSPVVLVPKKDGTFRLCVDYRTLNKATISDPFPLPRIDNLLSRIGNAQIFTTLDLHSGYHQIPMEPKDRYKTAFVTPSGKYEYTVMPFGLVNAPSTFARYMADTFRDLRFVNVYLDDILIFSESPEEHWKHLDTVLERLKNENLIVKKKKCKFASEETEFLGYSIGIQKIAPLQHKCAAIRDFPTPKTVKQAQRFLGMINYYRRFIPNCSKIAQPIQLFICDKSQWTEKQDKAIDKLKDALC
Nature of the assay: gel-based primase assay. The format is biochemical. The settings on record: DNA or RNA template, gamma-phosphate FAM-labelled GTP, Mn2+.

The next assay addresses T2, LlLtrA RT domain (Lactococcus cremoris, UniProt P0A3U0).
T2 construct: gene ltrA; RT domain aa 1-472, endonuclease domain removed; recombinant from E. coli; catalytic D308, D309
T2 sequence (P0A3U0 1-472): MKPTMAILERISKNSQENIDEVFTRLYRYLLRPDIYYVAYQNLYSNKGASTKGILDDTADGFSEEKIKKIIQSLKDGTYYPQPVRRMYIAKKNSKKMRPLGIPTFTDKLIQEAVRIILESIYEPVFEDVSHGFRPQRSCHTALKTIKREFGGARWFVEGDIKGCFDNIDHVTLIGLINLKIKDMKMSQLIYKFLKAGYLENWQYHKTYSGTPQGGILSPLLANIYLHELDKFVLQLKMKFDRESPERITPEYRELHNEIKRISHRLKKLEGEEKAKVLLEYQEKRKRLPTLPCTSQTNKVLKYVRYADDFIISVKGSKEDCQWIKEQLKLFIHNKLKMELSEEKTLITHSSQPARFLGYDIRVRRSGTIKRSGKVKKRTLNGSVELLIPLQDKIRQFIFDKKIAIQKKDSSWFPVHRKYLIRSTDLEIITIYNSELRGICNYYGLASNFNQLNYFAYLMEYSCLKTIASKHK
Nature of the assay: gel-based primase assay. It is filed as biochemical. Conditions: RNA template (oMZ27), gamma-phosphate FAM-labelled GTP, Mn2+.

On to `Nc1nc2c(ncn2[C@H]2C[C@H](O)[C@@H](COP(=O)(O)OP(=O)(O)OP(=O)(O)O)O2)c(=O)[nH]1` [dGTP], for which the gel-based primase assay result at ScTy3 RT is “ScTy3 RT is efficient DNA and RNA-dependent primase”; at LlLtrA RT domain, “LlLtrA RT is an RNA-dependent primase”.
